Results on two molecules are retold here after patent US20140048061A1, “SYSTEM AND METHOD FOR ADMINISTERING ANESTHETICS WHILE PERFORMING CPR” (priority 2012, published 2014).

For data set [1], the system named is pigs experiencing induced cardiac arrest. Kind of data set: Pigs in induced VF cardiac arrest, untreated for 20 minutes, given inhaled isoflurane at the start of conventional manual CPR. It is filed as in vivo. On the procedure: As an example, Applicants conducted experiments on pigs experiencing induced cardiac arrest. Cardiac arrest was induced by generating ventricular fibrillation (VF) and pigs were left in untreated cardiac arrest for 20 minutes. At the initiation of conventional manual CPR, inhaled isoflurane at 4% was introduced via an anesthesia machine for a total of 3 minutes. The anesthesia was then turned off. After a total of 4 minutes of CPR the animals were then shocked back into a stable perfusing heart rhythm and the dose of isoflurane anesthesia was restarted at 1% to provide for anesthesia during the recovery period of the animals. […] Cardiac function based upon an assessment of the left ventricular (LV) ejection fraction (EF) after 1 and 4 hours was normal, as determined by echocardiography, and post resuscitation inotropic support was unnecessary due to the absence of hemodynamic instability. Two of the 4 animals had undetectable levels of markers of cardiac injury (creatinine phosphokinase MB and cardiac troponin [cTnI]), while 2 of the 4 animals had mild elevations of markers of cardiac injury (creatinine phosphokinase MB and cTnI) at 4 hours post ROSC (6.8±9 and 5.8±11 in ng/mL, respectively). […] Although the duration of untreated VF in the control animals was 5 minutes shorter, post ROSC left ventricular function was severely compromised (EF: 33±9%) and there was significant elevation of CKMB and cTnI at 4 hours post ROSC (26.5±13.7 and 31.2±14.3, p<0.05) compared to isoflurane treated animals resuscitated after 20 minutes of untreated VF. In the absence of anesthesia during CPR as described above, Applicants were been unable to resuscitate pigs after 20 minutes of untreated arrest with conventional CPR. These findings represent an important advance in the field of CPR.

Data set [2] relates to animals after cardiac arrest and ROSC. The experiment in a line: Second cardiac arrest/CPR experiment, sevoflurane-treated (SPoC) vs control: left ventricle ejection fraction post ROSC. As to conditions: *P<0.05 vs controls. The format is in vivo, pigs. Here is the method: (§1) Another experiment was conducted with similar results. In that experiment, the hearts were subsequently removed from 5 animals from each group 15 minutes post-ROSC for mitochondrial function testing. Compared with the control group, all mitochondrial function tests were improved in the sevoflurane treated animals.
(§2) Table 1 illustrates the mitochondrial function for complex I substrates pyruvate (P, 10 mM) and malate (M, 10 mM) and complex II substrate succinate (Suc, 10 mM) in control hearts vs. sevoflurane-treated hearts (SPoC). LVEF refers to the left ventricle ejection fraction percentage at 12 min post return of spontaneous circulation (ROSC). RCI refers to the respiratory control index (state 3/state 4 respiration). ATP refers to adenosine triphosphate synthesis and Ca Ret refers to calcium retention capacity until mitochondrial transition pore opening. The asterisk (*) refers to P of less than 0.05.

The conditions of data set [3]: at 37° C.; cited from earlier work.
Data set [4] has as its system heart mitochondria (complex I and complex II substrates). The experiment in a line: Mitochondrial function testing of hearts removed 15 minutes post-ROSC. The format is in vivo, pigs. On the procedure: as §1, §2
The mark [5] stands for this setting: 4 hours post ROSC, 2 of 4 animals undetectable, 2 of 4 mild elevations.
[6] abbreviates: pyruvate 10 mM and malate 10 mM.

Marks after values point to notes of the source that are not given here.

Consider `FC(F)OC(Cl)C(F)(F)F` (centres unmarked) [isoflurane], for which, in data set [1] (setting [5]), the “cardiac troponin cTnI (marker of cardiac injury)” value came out at 5.8 ± 11 ng/mL and the “creatinine phosphokinase MB (marker of cardiac injury)” value is 6.8 ± 9 ng/mL. Besides, the “post resuscitation inotropic support” value in data set [1] (absence of hemodynamic instability) is “unnecessary”. Besides, the “cardiac function based on left ventricular (LV) ejection fraction (EF)” value in data set [1] (after 1 and 4 hours, by echocardiography) was “normal”. In addition, in data set [1] (all 4 animals, 20 min untreated VF, isoflurane 4% for 3 min, after 4 min CPR and one dose of 0.5 mg epinephrine), the “shocks needed to achieve return of spontaneous circulation (ROSC)” value is 1-2 shocks.

Regarding `FCOC(C(F)(F)F)C(F)(F)F` [sevoflurane], the “LVEF (%) 12 min Post ROSC” value in data set [2] is recorded as 53 ± 16* %. Moreover, in data set [3], the “blood gas partition coefficient” value is reported as 0.65. For the same molecule, the “all mitochondrial function tests compared with the control group” value in data set [4] (5 animals per group, hearts removed 15 min post-ROSC) is “improved”. In addition, the “RCI P/M (respiratory control index, state 3/state 4 respiration)” value in data set [4] (complex I substrates pyruvate 10 mM and malate 10 mM, hearts removed 15 min post-ROSC) was 11.4 ± 0.5*. Besides, in data set [4] (complex II substrate succinate 10 mM, hearts removed 15 min post-ROSC), the “RCI Suc (respiratory control index)” value is 4.5 ± 0.2*. Besides, in data set [4] (setting [6]), the “ATP P/M (adenosine triphosphate synthesis)” value is recorded as 148.5 ± 24.8* nm/min/mg and the “Ca Ret P/M (calcium retention capacity until mitochondrial transition pore opening)” value was 318.8 ± 45.0* nm/min/mg. Moreover, in data set [4] (succinate 10 mM), the “ATP Suc (adenosine triphosphate synthesis)” value is on record as 132.3 ± 18.4* nm/min/mg and the “Ca Ret Suc (calcium retention capacity until mitochondrial transition pore opening)” value is reported as 474.0 ± 58.8* nm/min/mg.
